Assay results reported in PMC6421026, “Interaction of Anticancer Drugs with Human Organic Anion Transporter hOAT4” (Journal of Oncology, 2019).
Counter-ions that a name gives are not always drawn.

Columns and labels:
[1] = biological target: T1, human organic anion transporter 4 (hOAT4) (Homo sapiens, UniProt Q9NSA0); test: inhibition of [3H]-estrone sulfate uptake in stable hOAT4-expressing COS-7 cells, Dixon plot (IC50 […]); trans-inhibition; assay type: cell-based
T1 construct: gene SLC22A11
T1 sequence (Q9NSA0 1-550): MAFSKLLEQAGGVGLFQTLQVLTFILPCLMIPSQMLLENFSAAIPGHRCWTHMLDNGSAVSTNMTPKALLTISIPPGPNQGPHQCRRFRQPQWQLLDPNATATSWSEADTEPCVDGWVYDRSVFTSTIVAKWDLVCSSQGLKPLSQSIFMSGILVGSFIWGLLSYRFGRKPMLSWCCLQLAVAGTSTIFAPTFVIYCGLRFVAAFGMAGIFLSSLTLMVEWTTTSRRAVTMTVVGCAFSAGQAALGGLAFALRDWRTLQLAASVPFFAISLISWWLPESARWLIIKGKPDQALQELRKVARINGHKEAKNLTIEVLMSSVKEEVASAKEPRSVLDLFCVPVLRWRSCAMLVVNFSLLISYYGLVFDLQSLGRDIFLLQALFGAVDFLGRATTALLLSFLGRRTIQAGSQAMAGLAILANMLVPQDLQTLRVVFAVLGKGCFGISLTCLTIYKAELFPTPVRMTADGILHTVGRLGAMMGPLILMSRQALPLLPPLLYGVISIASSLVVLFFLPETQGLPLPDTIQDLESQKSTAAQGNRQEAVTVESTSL

[2] = biological target: T1, human organic anion transporter 4 (hOAT4); test: inhibition of [3H]-estrone sulfate uptake in stable hOAT4-expressing COS-7 cells, Dixon plot (IC50 […]); assay type: cell-based

Compound	Ki [1] [µM]	Ki [2] [µM]
CC(C)(C)c1nc(-c2cccc(NS(=O)(=O)c3c(F)cccc3F)c2F)c(-c2ccnc(N)n2)s1 [Dab, dabrafenib mesylate]	4.26	–
COc1cccc2c1C(=O)c1c(O)c3c(c(O)c1C2=O)C[C@@](O)(C(=O)CO)C[C@@H]3O[C@H]1C[C@H](N)[C@@H](O)[C@H](C)O1 [epirubicin hydrochloride]	–	3
